Results on two compounds are retold here after the RepoRT retention time repository (doi:10.1016/j.jchromb.2020.122105).

Molecules are shown by their SMILES.

Holding throughout (conditions): stereoisomer not certain
Series [1] is described as follows: HILIC, Thermo Scientific Accucore HILIC, 100 × 2.1 mm, 2.6 µm, 0.5 mL/min, estimated dead time 0.44 min; A: water + 0.1% formic acid + 10 mM ammonium formate, pH 3; B: 5% water + 95% acetonitrile + 0.1% formic acid + 10 mM ammonium formate, pH 3; gradient (min/%B) 0/95 5/95 20/57 25/57 30/95 40/95.
Series [2] is described as follows: RP, Waters CORTECS T3, 100 × 2.1 mm, 2.7 µm, 0.3 mL/min, estimated dead time 0.73 min; A: water + 0.1% formic acid, pH 3; B: methanol + 0.1% formic acid, pH 3; gradient (min/%B) 0/0 1/0 6/5 30/100 35/100 35.1/0 40/0.
Series [3] is described as follows: RP, Waters CORTECS T3, 100 × 2.1 mm, 2.7 µm, 0.2 mL/min, estimated dead time 1.1 min; A: water + 0.1% formic acid, pH 3; B: methanol + 0.1% formic acid, pH 3; gradient (min/%B) 0/5 5/5 25/95 25.1/100 35/100 35.1/5 45/5.
Series [4] can be described thus: RP, Waters CORTECS T3, 100 × 2.1 mm, 2.7 µm, 0.2 mL/min, estimated dead time 1.1 min; A: water + 0.045% formic acid + 0.11% ammonium hydroxide, pH 7; B: methanol; gradient (min/%B) 0/5 5/5 25/95 25.1/100 35/100 35.1/5 45/5.
A short description of series [5]: RP, Waters CORTECS T3, 100 × 2.1 mm, 2.7 µm, 0.2 mL/min, estimated dead time 1.1 min; A: water + 0.1% formic acid, pH 3; B: methanol + 0.1% formic acid, pH 3; gradient (min/%B) 0/0 1/0 6/5 30/100 35/100 35.1/0 40/0.
The nature of series [6]: HILIC, Waters XBridge BEH Amide, 100 × 2.1 mm, 2.5 µm, 0.5 mL/min, estimated dead time 0.44 min; A: water + 0.1% acetic acid + 10 mM ammonium acetate, pH 4; B: 5% water + 95% acetonitrile + 0.1% acetic acid + 10 mM ammonium acetate, pH 4; gradient (min/%B) 0/95 5/95 20/57 25/57 30/95 40/95.
A short description of series [7]: RP, Waters ACQUITY UPLC BEH C18, 100 × 2.1 mm, 1.7 µm, 0.1 mL/min, estimated dead time 2.2 min; A: water + 0.1% formic acid, pH 3; B: methanol + 0.1% formic acid, pH 3; gradient (min/%B) 0/5 5/5 25/95 25.1/100 35/100 35.1/5 45/5.
The nature of series [8]: HILIC, Merck SeQuant ZIC-HILIC, 150 × 2.1 mm, 5 µm, 0.75 mL/min, estimated dead time 0.44 min; A: water + 0.1% acetic acid + 10 mM ammonium acetate, pH 4; B: 5% water + 95% acetonitrile + 0.1% acetic acid + 10 mM ammonium acetate, pH 4; gradient (min/%B) 0/95 5/95 20/57 25/57 30/95 40/95.
Series [9] in a line: RP, Waters ACQUITY UPLC BEH C18, 100 × 2.1 mm, 1.7 µm, 0.2 mL/min, estimated dead time 1.1 min; A: water + 0.1% formic acid, pH 3; B: methanol + 0.1% formic acid, pH 3; gradient (min/%B) 0/5 5/5 25/100 30/100 30.1/5 35/5.
Series [10] in a line: RP, Thermo Scientific Hypercarb, 150 × 2.1 mm, 5 µm, 0.1 mL/min, estimated dead time 3.3 min; A: water + 0.1% formic acid, pH 3; B: methanol + 0.1% formic acid, pH 3; gradient (min/%B) 0/5 5/5 20/100 35/100 35.1/5 45/5.
Series [11] in a line: RP, Waters CORTECS T3, 100 × 2.1 mm, 2.7 µm, 0.15 mL/min, estimated dead time 1.5 min; A: water + 0.1% formic acid, pH 3; B: methanol + 0.1% formic acid, pH 3; gradient (min/%B) 0/5 5/5 25/95 25.1/100 35/100 35.1/5 45/5.
The nature of series [12]: RP, Waters ACQUITY UPLC BEH C18, 100 × 2.1 mm, 1.7 µm, 0.2 mL/min, estimated dead time 1.1 min; A: water + 0.025% formic acid + 20 mM ammonium acetate + 0.055% ammonium hydroxide, pH 7; B: methanol; gradient (min/%B) 0/5 5/5 25/100 30/100 30.1/5 35/5.
Series [13] in a line: RP, Waters ACQUITY UPLC BEH C18, 100 × 2.1 mm, 1.7 µm, 0.1 mL/min, estimated dead time 2.2 min; A: water + 0.1% formic acid, pH 3; B: methanol + 0.1% formic acid, pH 3; gradient (min/%B) 0/5 5/5 25/95 25.1/100 35/100 35.1/5 45/5. The source holds these as a separate data set.
A short description of series [14]: HILIC, Merck SeQuant ZIC-HILIC, 150 × 2.1 mm, 5 µm, 0.75 mL/min, estimated dead time 0.44 min; A: water + 10 mM ammonium formate, pH 6; B: 5% water + 95% acetonitrile + 10 mM ammonium formate, pH 6; gradient (min/%B) 0/95 5/95 20/57 25/57 30/95 40/95.
The nature of series [15]: RP, Waters CORTECS T3, 100 × 2.1 mm, 2.7 µm, 0.25 mL/min, estimated dead time 0.88 min; A: water + 0.1% formic acid, pH 3; B: methanol + 0.1% formic acid, pH 3; gradient (min/%B) 0/5 5/5 25/95 25.1/100 35/100 35.1/5 45/5.
Series [16] is described as follows: RP, Waters ACQUITY UPLC BEH C18, 100 × 2.1 mm, 1.7 µm, 0.2 mL/min, estimated dead time 1.1 min; A: water + 0.025% formic acid + 20 mM ammonium acetate + 0.055% ammonium hydroxide, pH 7; B: methanol; gradient (min/%B) 0/5 5/5 25/100 30/100 30.1/5 35/5. The source holds these as a separate data set.
Series [17] in a line: RP, Waters CORTECS T3, 100 × 2.1 mm, 2.7 µm, 0.3 mL/min, estimated dead time 0.73 min; A: water + 0.1% formic acid, pH 3; B: methanol + 0.1% formic acid, pH 3; gradient (min/%B) 0/0 5/0 25/100 30/100 30.1/0 35/0.
The nature of series [18]: RP, Waters ACQUITY UPLC BEH C18, 100 × 2.1 mm, 1.7 µm, 0.1 mL/min, estimated dead time 2.2 min; A: water + 0.1% formic acid, pH 3; B: methanol + 0.1% formic acid, pH 3; gradient (min/%B) 0/5 5/5 25/95 25.1/100 35/100 35.1/5 45/5. This is another data set of the same source.
A short description of series [19]: RP, Waters CORTECS T3, 100 × 2.1 mm, 2.7 µm, 0.1 mL/min, estimated dead time 2.2 min; A: water + 0.1% formic acid, pH 3; B: methanol + 0.1% formic acid, pH 3; gradient (min/%B) 0/5 5/5 25/95 25.1/100 35/100 35.1/5 45/5.
Series [20] can be described thus: RP, Waters ACQUITY UPLC BEH C18, 100 × 2.1 mm, 1.7 µm, 0.1 mL/min, estimated dead time 2.2 min; A: water + 0.1% formic acid, pH 3; B: methanol + 0.1% formic acid, pH 3; gradient (min/%B) 0/5 5/5 25/100 30/100 30.1/5 35/5.
Series [21] in a line: RP, Waters CORTECS T3, 100 × 2.1 mm, 2.7 µm, 0.3 mL/min, estimated dead time 0.73 min; A: water + 0.1% formic acid, pH 3; B: methanol + 0.1% formic acid, pH 3; gradient (min/%B) 0/5 5/5 25/95 25.1/100 35/100 35.1/5 45/5.
Series [22] in a line: RP, Waters CORTECS T3, 100 × 2.1 mm, 2.7 µm, 0.3 mL/min, estimated dead time 0.73 min; A: water + 0.1% formic acid, pH 3; B: methanol + 0.1% formic acid, pH 3; gradient (min/%B) 0/5 5/5 25/100 30/100 30.1/5 35/5.

`c1ncc2[nH]cnc2n1` [PURINE]: the LC retention time was 1.41 min in series [1]; 2.6 min in series [2]; 6.98 min in [3]; 3.15 min in [4]; 3.64 min in [5]; 1.59 min in series [6]. Further, the LC retention time in [7] is 4.62 min; in series [8], 1.25 min; in [9], 2.36 min; in [10], 35.3 min; in series [11], 3.26 min; in [12], 3.15 min. For the same compound, the LC retention time in series [13] is 4.65 min; in series [14], 1.31 min; in [15] it was 1.99 min; in [16] it was 1.74 min; in series [17], 2.61 min; in series [18] it was 2.69 min.

Regarding `O=c1[nH]c(=O)c2[nH]c(=O)[nH]c2[nH]1` [URATE], the LC retention time was 8.77 min in [1]; 2.66 min in series [19]; 2.74 min in [20]; 0.92 min in series [2]; 2.72 min in [3]; 1.38 min in series [5]. Also, the LC retention time is 2.66 min in series [7]; 0.9 min in series [21]; 11.6 min in [8]; 1.38 min in series [9]; 1.78 min in series [11]; 2.7 min in series [13]. In addition, the LC retention time in [14] is 12.3 min; in series [22], 0.93 min; in series [15] it was 1.08 min; in series [16], 1.36 min; in series [17], 0.93 min; in series [18], 2.72 min.
